Experiments:
Format in all cases: in vivo, rat
[1] = tested on: MetS animals (high-fructose high-salt diet); assay: Invasive real-time cardiac contractility recording in metabolic syndrome rats; details: vs MetS; for Cardiac contractility (contractility index): oral 25 mg/kg/day in the last 6 weeks of 12 weeks diet
Description: (§1) Rats used in this study were male Wistar 6-8 weeks old rats weighing 180-200 g (King Fand Medical Research Center, King Abdulaziz University, Jeddah, Saudi Arabia). Clear polypropylene cages were used to house 4 rats each and included access to purified water and standard rodent pellets. Constant animal housing conditions applied constituting of alternating 12 hours light and dark, a temperature of 22±3° C., a relative humidity of 50-60% and adequate ventilation. Experimental protocol was approved by the Research Ethical Committee, Faculty of Pharmacy, King Abdulaziz University, Jeddah, Saudi Arabia and was conducted in accordance with the Saudi Arabia Research Bioethics and Regulations.
Animals were randomly divided into 5 experimental groups; Control (C) rats received regular tap water and food pellets. MetS group (M) in which fructose (10%) was added to drinking water and NaCl (3%) to food pellets. This regimen began in 6-week old rats and continued for 12 weeks. Standard quercetin group (MQ) administered 25 mg/kg quercetin suspension every day in the last 6 weeks of fructose and salt administration. Nano formula vehicle group (MN) received the same volumes of SNEDDS ingredients (Pumpkin seed oil, D-α-tocopheryl polyethylene glycol succinate (TPGS) and PEG 200) without quercetin every day in the last 6 weeks of fructose and salt administration. The nanoformula group (MNQ) administered 25 mg/kg of quercetin in the form of nano-pharmaceutical formulation every day in the last 6 weeks of fructose and salt administration.
Invasive real-time recording of cardiac contractility was carried out according to the method described in previous publication from our laboratories (El-Bassossy et al., 2017). After urethane anaethesia, animals were placed on controlled heating pads, and body temperature, measured via a rectal probe, was maintained at 37° C. A microtip pressure transducer (SPR-320; Millar Instruments, Houston, Tex., USA) was inserted into the right carotid artery and advanced into the left ventricle under pressure control. After stabilization for 5 min, the signals were continuously recorded at a sampling rate of 1000 s−1. The microtip catheter was connected to a PowerLab Data Interface Module connected to a PC running LabChart professional software (version 7.3; ADI Instruments, Bella Vista, Australia) containing a blood pressure module.

[2] = tested on: MetS animals (high-fructose high-salt diet); assay: Overall protection from cardiovascular complication of metabolic syndrome in rats; details: oral 25 mg/kg/day in the last 6 weeks
Description: Rats used in this study were male Wistar 6-8 weeks old rats weighing 180-200 g (King Fand Medical Research Center, King Abdulaziz University, Jeddah, Saudi Arabia). Clear polypropylene cages were used to house 4 rats each and included access to purified water and standard rodent pellets. Constant animal housing conditions applied constituting of alternating 12 hours light and dark, a temperature of 22±3° C., a relative humidity of 50-60% and adequate ventilation. Experimental protocol was approved by the Research Ethical Committee, Faculty of Pharmacy, King Abdulaziz University, Jeddah, Saudi Arabia and was conducted in accordance with the Saudi Arabia Research Bioethics and Regulations. Animals were randomly divided into 5 experimental groups; Control (C) rats received regular tap water and food pellets. MetS group (M) in which fructose (10%) was added to drinking water and NaCl (3%) to food pellets. This regimen began in 6-week old rats and continued for 12 weeks. Standard quercetin group (MQ) administered 25 mg/kg quercetin suspension every day in the last 6 weeks of fructose and salt administration. Nano formula vehicle group (MN) received the same volumes of SNEDDS ingredients (Pumpkin seed oil, D-α-tocopheryl polyethylene glycol succinate (TPGS) and PEG 200) without quercetin every day in the last 6 weeks of fructose and salt administration. […]

[3] = tested on: MetS animals (high-fructose high-salt diet); assay: Blood pressure in metabolic syndrome rats; details: oral 25 mg/kg/day in the last 6 weeks, vs MetS, p<0.05
Description: as §1
Animals were randomly divided into 5 experimental groups; Control (C) rats received regular tap water and food pellets. MetS group (M) in which fructose (10%) was added to drinking water and NaCl (3%) to food pellets. […]
Invasive real-time recording of cardiac contractility was carried out according to the method described in previous publication from our laboratories (El-Bassossy et al., 2017). After urethane anaethesia, animals were placed on controlled heating pads, and body temperature, measured via a rectal probe, was maintained at 37° C. […] After stabilization for 5 min, the signals were continuously recorded at a sampling rate of 1000 s−1. […]

[4] = tested on: MetS animals (high-fructose high-salt diet); assay: Cardiac conductivity (surface ECG) recording in metabolic syndrome rats; details: oral 25 mg/kg/day in the last 6 weeks, vs MetS, p<0.05
Description: Rats used in this study were male Wistar 6-8 weeks old rats weighing 180-200 g (King Fand Medical Research Center, King Abdulaziz University, Jeddah, Saudi Arabia). Clear polypropylene cages were used to house 4 rats each and included access to purified water and standard rodent pellets. Constant animal housing conditions applied constituting of alternating 12 hours light and dark, a temperature of 22±3° C., a relative humidity of 50-60% and adequate ventilation. Experimental protocol was approved by the Research Ethical Committee, Faculty of Pharmacy, King Abdulaziz University, Jeddah, Saudi Arabia and was conducted in accordance with the Saudi Arabia Research Bioethics and Regulations. Animals were randomly divided into 5 experimental groups; Control (C) rats received regular tap water and food pellets. MetS group (M) in which fructose (10%) was added to drinking water and NaCl (3%) to food pellets. This regimen began in 6-week old rats and continued for 12 weeks. Standard quercetin group (MQ) administered 25 mg/kg quercetin suspension every day in the last 6 weeks of fructose and salt administration. […] The standard limb lead II of the surface ECG was recorded by the Powerlab system (ADI Instruments) connected to a PC running LabChart professional software (version 7.3) containing an ECG module, which detects different components of the ECG. […]

[5] = oral 25 mg/kg/day in the last 6 weeks, p<0.05

Q: `O=c1c(O)c(-c2ccc(O)c(O)c2)oc2cc(O)cc(O)c12` [regular size quercetin, quercetin] was tested. Which “Cardiac contractility (contractility index)” value ([1]; p<0.05, 25 mg/kg/day) did it give?
A: did not significantly affect

Q: What about the “Cardiac contractility (contractility index)” value ([1]; p<0.05, listed as suspension of quercetin, 25 mg/kg/day) of the same molecule?
A: failed to affect

Q: And the “Diastolic function (−dP/dt, dp/dt min)” value [1, 5]?
A: did not significantly affect

Q: What about the “Left ventricular systolic function (dP/dt max)” value [1, 5] of the same molecule?
A: did not significantly affect

Q: And the “Cardiovascular function / cardioprotective effect (overall)” value [2]?
A: failed to completely protect

Q: What about the “Diastolic blood pressure (DBP)” value [3] of the same molecule?
A: partially reduced

Q: What about the “Systolic blood pressure (SBP)” value [3] of the same molecule?
A: partially reduced

Q: What about the JT interval [4] of the same molecule?
A: did not significantly improve

Q: What about the QTc interval [4] of the same molecule?
A: did not significantly improve

Reference: patent publication US10653666B1, “Cardioprotective nano-pharmaceutical formulation” (King Abdulaziz University, priority 2020, dated 2020)
